Measured values: US20080009418A1, “Selective Inhibitors” (Alchemia LTD., priority 2004, published 2008)

Tests used:
[1] = target: T1, Human opioid (ORL1) (Homo sapiens, UniProt P41146); experiment: Radioligand binding, human opioid ORL1 membranes, FlashPlate, [125I]-Nociceptin; details: compound at 10 μM; for A10 radioligand binding inhibition: human ORL1 membranes
T1 construct: purchased Perkin Elmer Biosignal
Outline: (§1)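 Cloned human receptor membranes were coated onto FlashPlate wells and incubated with radioligand and compound (added from a 0.5 mM DMSO daughter plate) for 1 hour at room temperature in the dark. Scintillation counting gave percent inhibition, with DMSO defining total and reference ligand defining non-specific binding.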

[2] = target: T2, Human melanin-concentrating hormone (MCH1) (Homo sapiens, UniProt Q99705); experiment: Radioligand binding, human melanin-concentrating hormone MCH1 membranes, FlashPlate, [125I]-S36057; details: compound at 10 μM; for A6 radioligand binding inhibition: human MCH1 membranes
T2 construct: purchased Perkin Elmer Biosignal
Outline: as §1

[3] = target: T3, Human Melanocortin (MC3) (Homo sapiens, UniProt P41968); experiment: Radioligand binding, human melanocortin MC3 membranes, FlashPlate, [125I]-NDP-αMSH; details: compound at 10 μM; for A3 radioligand binding inhibition: human melanocortin MC3 membranes
T3 construct: purchased Perkin Elmer Biosignal
Outline: as §1

[4] = target: T4, Mouse urotensin (mUR2) (Mus musculus, UniProt Q8VIH9); experiment: Radioligand binding, mouse urotensin mUR2 membranes, FlashPlate, [125I]-Urotensin II; details: compound at 10 μM; for A11 radioligand binding inhibition: mouse urotensin mUR2 membranes
T4 construct: purchased Perkin Elmer Biosignal
T4 sequence (Q8VIH9 1-385): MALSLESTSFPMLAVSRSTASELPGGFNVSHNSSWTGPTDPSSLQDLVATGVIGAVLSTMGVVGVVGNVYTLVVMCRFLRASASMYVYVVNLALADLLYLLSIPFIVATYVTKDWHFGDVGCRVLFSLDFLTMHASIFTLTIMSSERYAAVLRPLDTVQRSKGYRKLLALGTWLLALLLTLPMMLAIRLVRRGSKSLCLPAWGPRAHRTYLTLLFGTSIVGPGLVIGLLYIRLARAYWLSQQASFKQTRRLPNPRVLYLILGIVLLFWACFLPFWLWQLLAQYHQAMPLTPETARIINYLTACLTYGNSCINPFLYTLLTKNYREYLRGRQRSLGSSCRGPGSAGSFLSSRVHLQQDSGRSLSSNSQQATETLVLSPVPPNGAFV
Outline: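 Cloned mouse urotensin (mUR2) receptor membranes from Perkin Elmer Biosignal were immobilized in FlashPlate microplates using a proprietary coating. Each well got 19.5 μl buffer, then 0.5 μl of DMSO, reference ligand, or compound. Adding 5 μl of [125I]-Urotensin II, diluted to 5× final concentration in binding buffer, started binding. Plates were sealed with TopSeal-A and incubated 1 hour at room temperature in the dark. Wells were counted for 30 seconds each on a TopCount after a 60-second delay, and percentage inhibition was calculated.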

[5] = target: T5, Human neuropeptide Y (NPY-Y1) (Homo sapiens, UniProt P25929); experiment: Radioligand binding, human neuropeptide Y NPY-Y1 membranes, FlashPlate, [125I]-PYY; details: compound at 10 μM; for A9 radioligand binding inhibition: human NPY-Y1 membranes
T5 construct: purchased Perkin Elmer Biosignal
T5 sequence (P25929 1-384): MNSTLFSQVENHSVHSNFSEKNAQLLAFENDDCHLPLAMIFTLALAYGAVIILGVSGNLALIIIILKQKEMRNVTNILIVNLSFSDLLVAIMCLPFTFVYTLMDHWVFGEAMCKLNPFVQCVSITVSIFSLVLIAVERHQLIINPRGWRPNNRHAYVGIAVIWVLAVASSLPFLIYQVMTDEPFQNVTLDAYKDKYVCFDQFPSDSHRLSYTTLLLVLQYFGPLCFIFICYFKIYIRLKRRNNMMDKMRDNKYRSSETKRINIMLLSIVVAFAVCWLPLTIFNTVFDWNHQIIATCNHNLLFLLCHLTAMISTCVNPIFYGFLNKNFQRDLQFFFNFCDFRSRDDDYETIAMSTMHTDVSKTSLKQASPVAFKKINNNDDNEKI
Outline: as §1

[6] = target: T6, Human δ-opioid (DOP) (Homo sapiens, UniProt P41143); experiment: Radioligand binding, human δ-opioid (DOP) membranes, FlashPlate, [3H]-Bremazocine; details: compound at 10 μM; for A1 radioligand binding inhibition: human δ-opioid (DOP) membranes
T6 construct: purchased Perkin Elmer Biosignal
Outline: as §1

[7] = target: T7, Human κ-Opioid (KOP) (Homo sapiens, UniProt P41145); experiment: Radioligand binding, human κ-opioid (KOP) membranes, filtration, [3H]-Diprenorphine; details: compound at 10 μM; for A2 radioligand binding inhibition: human κ-opioid (KOP) membranes
T7 construct: purchased Perkin Elmer Biosignal
Outline: (§2)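 Percent inhibition of radioligand binding measured on recombinant human membranes: NK1 with [125I]-Substance P, KOP with [3H]-Diprenorphine. Incubation 1 h at room temperature, then harvest onto 0.3% PEI-soaked filters, cold Tris-HCl pH 7.4 washes and scintillation counting; non-specific binding from reference ligand wells.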

[8] = target: T8, Human μ-opioid (MOP) (Homo sapiens, UniProt P35372); experiment: Radioligand binding, human μ-opioid (MOP) membranes, FlashPlate, [3H]-Naloxone; details: compound at 10 μM; for A7 radioligand binding inhibition: human μ-opioid (MOP) membranes
T8 construct: purchased Perkin Elmer Biosignal
Outline: as §1

[9] = target: T9, Human Melanocortin (MC4) (Homo sapiens, UniProt P32245); experiment: Radioligand binding, human melanocortin MC4 membranes, FlashPlate, [125I]-NDP-αMSH; details: compound at 10 μM; for A4 radioligand binding inhibition: human melanocortin MC4 membranes
T9 construct: purchased Perkin Elmer Biosignal
Outline: as §1

[10] = target: T10, Human neurokinin (NK1) (Homo sapiens, UniProt P25103); experiment: Radioligand binding, human neurokinin NK1 membranes, filtration, [125I]-Substance P; details: compound at 10 μM; for A8 radioligand binding inhibition: human neurokinin NK1 membranes
T10 construct: purchased Perkin Elmer Biosignal
Outline: as §2

[11] = target: T11, Human melanocortin (MC5) (Homo sapiens, UniProt P33032); experiment: Radioligand binding, human melanocortin MC5 membranes, FlashPlate, [125I]-NDP-αMSH; details: compound at 10 μM; for A5 radioligand binding inhibition: human melanocortin MC5 membranes
T11 construct: purchased Perkin Elmer Biosignal
Outline: as §1

T1 sequence (P41146 whole entry): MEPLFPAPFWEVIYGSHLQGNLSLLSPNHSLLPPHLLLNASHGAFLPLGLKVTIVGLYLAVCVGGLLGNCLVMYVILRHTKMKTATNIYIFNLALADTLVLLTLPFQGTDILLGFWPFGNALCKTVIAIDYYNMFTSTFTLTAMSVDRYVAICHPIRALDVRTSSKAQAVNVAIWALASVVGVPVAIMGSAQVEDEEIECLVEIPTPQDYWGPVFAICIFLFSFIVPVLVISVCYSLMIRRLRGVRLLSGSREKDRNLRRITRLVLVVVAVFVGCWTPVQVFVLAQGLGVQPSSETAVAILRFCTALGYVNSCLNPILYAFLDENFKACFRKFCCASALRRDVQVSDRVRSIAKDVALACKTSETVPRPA
T3 sequence (P41968 whole entry): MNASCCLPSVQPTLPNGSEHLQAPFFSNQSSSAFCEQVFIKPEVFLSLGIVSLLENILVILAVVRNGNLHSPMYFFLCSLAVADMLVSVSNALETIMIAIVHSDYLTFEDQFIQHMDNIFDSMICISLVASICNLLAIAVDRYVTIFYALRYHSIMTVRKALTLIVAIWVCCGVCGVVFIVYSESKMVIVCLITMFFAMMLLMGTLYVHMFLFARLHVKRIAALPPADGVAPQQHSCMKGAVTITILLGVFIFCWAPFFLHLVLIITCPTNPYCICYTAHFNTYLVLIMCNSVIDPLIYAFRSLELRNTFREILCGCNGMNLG
T11 sequence (P33032 whole entry): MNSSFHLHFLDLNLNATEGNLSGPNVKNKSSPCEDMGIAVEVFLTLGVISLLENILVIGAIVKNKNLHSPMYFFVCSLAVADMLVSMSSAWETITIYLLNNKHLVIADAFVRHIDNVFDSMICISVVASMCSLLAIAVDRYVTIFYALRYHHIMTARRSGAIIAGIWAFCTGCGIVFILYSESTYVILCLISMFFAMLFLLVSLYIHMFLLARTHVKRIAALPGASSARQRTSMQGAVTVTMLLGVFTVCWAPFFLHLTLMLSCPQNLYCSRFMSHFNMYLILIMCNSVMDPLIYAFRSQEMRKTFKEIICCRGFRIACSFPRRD
T6 sequence (P41143 whole entry): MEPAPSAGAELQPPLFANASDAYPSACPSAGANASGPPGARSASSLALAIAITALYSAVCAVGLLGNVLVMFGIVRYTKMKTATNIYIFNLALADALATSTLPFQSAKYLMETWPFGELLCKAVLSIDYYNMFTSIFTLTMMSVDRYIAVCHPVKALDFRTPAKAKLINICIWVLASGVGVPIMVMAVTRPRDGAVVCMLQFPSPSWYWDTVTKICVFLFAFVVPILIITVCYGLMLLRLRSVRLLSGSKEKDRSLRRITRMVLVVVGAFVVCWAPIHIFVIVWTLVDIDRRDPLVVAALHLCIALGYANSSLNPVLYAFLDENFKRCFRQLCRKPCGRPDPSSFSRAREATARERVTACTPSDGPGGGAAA
T10 sequence (P25103 whole entry): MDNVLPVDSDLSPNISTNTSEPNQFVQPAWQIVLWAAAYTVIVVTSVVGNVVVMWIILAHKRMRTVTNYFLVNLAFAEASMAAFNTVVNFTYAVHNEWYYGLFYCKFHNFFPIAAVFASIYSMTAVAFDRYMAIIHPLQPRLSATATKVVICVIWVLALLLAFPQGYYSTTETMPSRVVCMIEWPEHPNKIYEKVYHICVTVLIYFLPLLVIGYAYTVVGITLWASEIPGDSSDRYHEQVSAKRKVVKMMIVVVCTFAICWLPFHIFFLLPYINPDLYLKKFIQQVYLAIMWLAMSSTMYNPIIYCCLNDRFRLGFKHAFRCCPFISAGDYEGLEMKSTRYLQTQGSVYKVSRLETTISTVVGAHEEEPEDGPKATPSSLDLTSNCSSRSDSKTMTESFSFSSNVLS
T2 sequence (Q99705 whole entry): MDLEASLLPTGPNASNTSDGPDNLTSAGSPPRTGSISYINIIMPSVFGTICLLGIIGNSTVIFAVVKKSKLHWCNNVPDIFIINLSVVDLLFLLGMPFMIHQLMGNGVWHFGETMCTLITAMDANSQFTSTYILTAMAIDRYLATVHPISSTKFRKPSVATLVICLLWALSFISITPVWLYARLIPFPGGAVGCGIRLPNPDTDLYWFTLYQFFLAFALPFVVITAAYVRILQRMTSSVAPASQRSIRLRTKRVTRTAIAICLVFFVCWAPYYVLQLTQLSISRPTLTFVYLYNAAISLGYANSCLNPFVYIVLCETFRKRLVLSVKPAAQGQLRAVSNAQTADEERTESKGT
T7 sequence (P41145 whole entry): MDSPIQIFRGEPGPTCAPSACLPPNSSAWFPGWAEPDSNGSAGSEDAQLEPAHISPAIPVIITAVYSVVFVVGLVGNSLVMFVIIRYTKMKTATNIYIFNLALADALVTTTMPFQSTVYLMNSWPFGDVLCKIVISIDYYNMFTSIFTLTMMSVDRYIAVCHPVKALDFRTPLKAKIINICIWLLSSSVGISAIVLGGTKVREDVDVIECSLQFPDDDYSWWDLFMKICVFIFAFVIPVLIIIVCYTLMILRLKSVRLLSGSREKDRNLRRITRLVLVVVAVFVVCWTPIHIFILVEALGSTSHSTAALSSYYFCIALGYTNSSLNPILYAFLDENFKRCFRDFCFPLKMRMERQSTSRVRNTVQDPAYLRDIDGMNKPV
T9 sequence (P32245 whole entry): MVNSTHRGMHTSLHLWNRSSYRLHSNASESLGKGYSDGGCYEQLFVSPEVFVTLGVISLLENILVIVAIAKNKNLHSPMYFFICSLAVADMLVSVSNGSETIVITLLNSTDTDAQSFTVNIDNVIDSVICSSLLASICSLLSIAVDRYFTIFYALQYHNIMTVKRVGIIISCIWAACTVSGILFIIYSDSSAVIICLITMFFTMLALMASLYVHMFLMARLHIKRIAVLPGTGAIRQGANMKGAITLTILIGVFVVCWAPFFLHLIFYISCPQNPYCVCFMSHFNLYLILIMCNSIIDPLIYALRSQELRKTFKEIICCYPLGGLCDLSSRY
T8 sequence (P35372 whole entry): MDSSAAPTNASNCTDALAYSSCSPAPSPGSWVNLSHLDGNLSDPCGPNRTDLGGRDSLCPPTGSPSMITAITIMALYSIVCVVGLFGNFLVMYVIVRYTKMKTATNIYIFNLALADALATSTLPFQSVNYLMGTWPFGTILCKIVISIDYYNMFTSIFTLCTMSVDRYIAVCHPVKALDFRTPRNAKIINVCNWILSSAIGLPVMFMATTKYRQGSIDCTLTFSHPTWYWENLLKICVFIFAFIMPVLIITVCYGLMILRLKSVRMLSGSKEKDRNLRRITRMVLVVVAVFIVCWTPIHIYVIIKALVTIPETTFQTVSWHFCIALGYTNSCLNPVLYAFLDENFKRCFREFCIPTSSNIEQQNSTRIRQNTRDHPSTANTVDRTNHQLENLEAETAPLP

| Compound | A10 radioligand binding inhibition [1] | A6 radioligand binding inhibition [2] | A3 radioligand binding inhibition [3] | A11 radioligand binding inhibition [4] | A9 radioligand binding inhibition [5] | A1 radioligand binding inhibition [6] | A2 radioligand binding inhibition [7] | A7 radioligand binding inhibition [8] | A4 radioligand binding inhibition [9] | A8 radioligand binding inhibition [10] | A5 radioligand binding inhibition [11] | also measured |
| --- | --- | --- | --- | --- | --- | --- | --- | --- | --- | --- | --- | --- |
| CSC1OC(COCc2ccccc2)C(O)C(OCc2ccc3ccccc3c2)C1NC(=O)CCCNC(=N)N (stereo not drawn) [compound 305] | – | – | – | – | – | – | – | – | – | – | – | A10: inhibition of radioligand binding, human opioid (ORL1) ([1]; [125I]-Nociceptin): − (“−” indicates less than 50% inhibition at 10 μM); A6: inhibition of radioligand binding, human melanin-concentrating hormone (MCH1) ([2]; [125I]-S36057): − (“−” indicates less than 50% inhibition at 10 μM); A3: inhibition of radioligand binding, human melanocortin (MC3) ([3]; [125I]-NDP-αMSH): − (“−” indicates less than 50% inhibition at 10 μM); A11: inhibition of radioligand binding, mouse urotensin (mUR2) ([4]; [125I]-Urotensin II): − (“−” indicates less than 50% inhibition at 10 μM); A9: inhibition of radioligand binding, human neuropeptide Y (NPY-Y1) ([5]; [125I]-PYY): − (“−” indicates less than 50% inhibition at 10 μM); A1: inhibition of radioligand binding, human δ-opioid (DOP) ([6]; [3H]-Bremazocine): − (“−” indicates less than 50% inhibition at 10 μM); A2: inhibition of radioligand binding, human κ-opioid (KOP) ([7]; [3H]-Diprenorphine): − (“−” indicates less than 50% inhibition at 10 μM); A7: inhibition of radioligand binding, human μ-opioid (MOP) ([8]; [3H]-Naloxone): − (“−” indicates less than 50% inhibition at 10 μM); A4: inhibition of radioligand binding, human melanocortin (MC4) ([9]; [125I]-NDP-αMSH): − (“−” indicates less than 50% inhibition at 10 μM); A8: inhibition of radioligand binding, human neurokinin (NK1) ([10]; [125I]-Substance P): + (“+” indicates greater than 50% inhibition at 10 μM); A5: inhibition of radioligand binding, human melanocortin (MC5) ([11]; [125I]-NDP-αMSH): + (“+” indicates greater than 50% inhibition at 10 μM) |
| COC[C@H]1OC(OCc2ccc3ccccc3c2)[C@H](NC(=O)CCCNC(=N)N)[C@@H](OCc2ccccc2)[C@@H]1O (stereo partly drawn) [compound 21] | − (“−” indicates less than 50% inhibition at 10 μM) | − (“−” indicates less than 50% inhibition at 10 μM) | − (“−” indicates less than 50% inhibition at 10 μM) | − (“−” indicates less than 50% inhibition at 10 μM) | − (“−” indicates less than 50% inhibition at 10 μM) | − (“−” indicates less than 50% inhibition at 10 μM) | − (“−” indicates less than 50% inhibition at 10 μM) | − (“−” indicates less than 50% inhibition at 10 μM) | − (“−” indicates less than 50% inhibition at 10 μM) | + (“+” indicates greater than 50% inhibition at 10 μM) | − (“−” indicates less than 50% inhibition at 10 μM) | – |
| CO[C@H]1[C@H](O)[C@@H](COCc2ccc(Cl)cc2)OC(OCc2ccc(-c3ccccc3)cc2)[C@@H]1NC(=O)CCNC(=N)N (stereo partly drawn) [compound 63] | + (“+” indicates greater than 50% inhibition at 10 μM) | + (“+” indicates greater than 50% inhibition at 10 μM) | + (“+” indicates greater than 50% inhibition at 10 μM) | − (“−” indicates less than 50% inhibition at 10 μM) | + (“+” indicates greater than 50% inhibition at 10 μM) | − (“−” indicates less than 50% inhibition at 10 μM) | + (“+” indicates greater than 50% inhibition at 10 μM) | + (“+” indicates greater than 50% inhibition at 10 μM) | + (“+” indicates greater than 50% inhibition at 10 μM) | + (“+” indicates greater than 50% inhibition at 10 μM) | + (“+” indicates greater than 50% inhibition at 10 μM) | – |
